Data: patent US11479802B2, “Assays for screening activity of modulators of members of the hydroxy steroid (17-beta) dehydrogenase (HSD17B) family” (Regeneron Pharmaceuticals, Inc., priority 2017, dated 2022)

Columns and labels:
Type in all cases: biochemical
[1] = target: T1, human HSD17B13 (Homo sapiens, UniProt Q7Z5P4); assay: Substrate screening of steroid and bioactive lipid libraries against purified recombinant HSD17B13 (NADH-linked luciferase assay); conditions: for HSD17B13 Enzymatic Activity Relative Light Units: 500 μM NAD+, 100 ng enzyme, 3 hours at 23° C.; for HSD17B13 Enzymatic Activity Percent Estradiol Control: normalized to 50 μM estradiol after subtraction of 5% DMSO
T1 sequence (Q7Z5P4 20-300): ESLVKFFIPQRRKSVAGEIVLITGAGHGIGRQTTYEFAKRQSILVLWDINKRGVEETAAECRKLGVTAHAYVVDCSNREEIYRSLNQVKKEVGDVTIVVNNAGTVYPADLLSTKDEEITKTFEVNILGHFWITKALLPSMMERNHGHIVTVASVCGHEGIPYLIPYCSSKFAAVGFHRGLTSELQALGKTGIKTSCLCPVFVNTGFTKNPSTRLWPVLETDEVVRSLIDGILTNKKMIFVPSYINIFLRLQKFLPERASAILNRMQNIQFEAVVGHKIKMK
In short: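 Recombinant human HSD17B13 (100 ng) incubated 3 h at 23° C in 0.2 M Tris-HCl pH 7.5 with 500 μM NAD+ and 5 μM bioactive lipid or 50 μM steroid (5% DMSO). NADH measured by luciferase luminescence after 1 h; values as percent of 50 μM estradiol control after 5% DMSO subtraction.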

[2] = target: T2, HSD17B1 (Homo sapiens, UniProt P14061); assay: Steroid substrate panel against HSD17B family member B1; conditions: substrate at 50 μM; estradiol set as 100%
T2 construct: made in house
T2 sequence (P14061 1-328): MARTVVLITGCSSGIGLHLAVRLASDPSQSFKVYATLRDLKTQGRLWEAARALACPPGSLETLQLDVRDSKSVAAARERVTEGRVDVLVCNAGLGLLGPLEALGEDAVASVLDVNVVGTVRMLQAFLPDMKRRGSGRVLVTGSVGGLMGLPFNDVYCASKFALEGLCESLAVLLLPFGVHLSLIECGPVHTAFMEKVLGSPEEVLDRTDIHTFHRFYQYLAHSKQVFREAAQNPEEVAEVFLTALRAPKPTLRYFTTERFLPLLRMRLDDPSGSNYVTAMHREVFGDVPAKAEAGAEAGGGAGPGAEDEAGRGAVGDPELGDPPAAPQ
Protocol: (§1) To understand the functional consequences of premature truncation of the HSD17B13 protein due to rs72613567:TA (the associated variant, rs72613567, is an insertion of an adenine adjacent to the donor splice site of exon six (TA allele)), the enzymatic activity of isoforms A and D was evaluated in vitro using recombinant protein and nicotinamide […] dinucleotide as cofactor. Reactions were performed in a final volume of 40 μl of assay buffer (0.2 M Tris-HCl, pH 7.5) which contained 500 μM NAD^+, 5 μM bioactive lipid or 50 μM steroid (all in a final concentration of 5% DMSO), and 100 ng of recombinant human HSD17B13. Reactions were incubated for 3 hours, at 23° C., after which an equal volume detection reagent was added. Following a 1 hour incubation at 23° C., the relative light units (RLUs) were measured on an Envision Plate Reader (Perkin Elmer). Raw RLU values were normalized as percent of control (50 μM estradiol) following subtraction of negative control (5% DMSO) using the following formula: Percent of control (POC)=100×(Sample (RLU)−Negative CTRLaverage)/(Positive CTRLaverage−Negative CTRLaverage).
(§2) In order to determine specificity of compounds with inhibitory activity against HSD17B13, assays for selected members of the HSD17B family which includes HSD17B1-HSD17B14 were established. As a first step, selected family members were expressed, purified and tested for activity a using a steroid substrate panel. Substrates from the steroid panel were tested at 50 μM, using the standard assay protocol. Activity against the substrates for each HSD17B family member were normalized to Percent of Control (POC). The control, estradiol, was set as 100%.

[3] = target: T3, HSD17B2 (Homo sapiens, UniProt P37059); assay: Steroid substrate panel against HSD17B family member B2; conditions: substrate at 50 μM; estradiol set as 100%
T3 construct: made in house
T3 sequence (P37059 1-387): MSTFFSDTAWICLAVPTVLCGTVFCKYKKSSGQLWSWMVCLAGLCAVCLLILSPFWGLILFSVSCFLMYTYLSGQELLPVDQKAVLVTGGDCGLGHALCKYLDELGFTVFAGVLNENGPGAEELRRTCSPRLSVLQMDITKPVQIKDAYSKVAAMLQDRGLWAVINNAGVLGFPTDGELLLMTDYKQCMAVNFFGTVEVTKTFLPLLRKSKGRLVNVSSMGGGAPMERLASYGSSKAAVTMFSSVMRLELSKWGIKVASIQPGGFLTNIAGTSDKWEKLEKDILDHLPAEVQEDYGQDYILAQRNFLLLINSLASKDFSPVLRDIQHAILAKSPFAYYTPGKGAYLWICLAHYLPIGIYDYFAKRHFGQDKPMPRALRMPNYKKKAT
Protocol: as §1, §2

[4] = target: T4, HSD17B4 (Homo sapiens, UniProt P51659); assay: Steroid substrate panel against HSD17B family member B4; conditions: substrate at 50 μM; estradiol set as 100%
T4 construct: made in house
T4 sequence (P51659 1-736): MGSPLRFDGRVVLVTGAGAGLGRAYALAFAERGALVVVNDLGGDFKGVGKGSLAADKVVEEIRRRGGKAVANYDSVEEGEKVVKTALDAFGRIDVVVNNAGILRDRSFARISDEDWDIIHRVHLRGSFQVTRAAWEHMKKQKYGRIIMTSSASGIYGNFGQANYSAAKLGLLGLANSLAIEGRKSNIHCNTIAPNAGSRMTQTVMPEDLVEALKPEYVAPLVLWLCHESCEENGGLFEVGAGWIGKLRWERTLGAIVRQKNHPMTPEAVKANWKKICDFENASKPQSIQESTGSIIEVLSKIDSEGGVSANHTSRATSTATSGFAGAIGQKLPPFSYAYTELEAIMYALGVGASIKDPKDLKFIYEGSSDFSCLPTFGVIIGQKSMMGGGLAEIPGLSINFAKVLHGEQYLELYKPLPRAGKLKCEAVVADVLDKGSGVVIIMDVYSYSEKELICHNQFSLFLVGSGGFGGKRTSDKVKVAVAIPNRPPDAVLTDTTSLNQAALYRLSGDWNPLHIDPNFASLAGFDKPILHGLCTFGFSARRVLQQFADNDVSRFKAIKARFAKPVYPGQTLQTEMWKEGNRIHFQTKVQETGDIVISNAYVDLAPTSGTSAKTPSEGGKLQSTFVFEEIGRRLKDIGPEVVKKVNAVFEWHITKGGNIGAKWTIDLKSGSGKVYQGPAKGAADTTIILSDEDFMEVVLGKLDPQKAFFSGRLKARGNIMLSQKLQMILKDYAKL
Protocol: as §1, §2

[5] = target: T5, HSD17B5 (Homo sapiens, UniProt P42330); assay: Steroid substrate panel against HSD17B family member B5; conditions: substrate at 50 μM; estradiol set as 100%
T5 construct: made in house
T5 sequence (P42330 1-323): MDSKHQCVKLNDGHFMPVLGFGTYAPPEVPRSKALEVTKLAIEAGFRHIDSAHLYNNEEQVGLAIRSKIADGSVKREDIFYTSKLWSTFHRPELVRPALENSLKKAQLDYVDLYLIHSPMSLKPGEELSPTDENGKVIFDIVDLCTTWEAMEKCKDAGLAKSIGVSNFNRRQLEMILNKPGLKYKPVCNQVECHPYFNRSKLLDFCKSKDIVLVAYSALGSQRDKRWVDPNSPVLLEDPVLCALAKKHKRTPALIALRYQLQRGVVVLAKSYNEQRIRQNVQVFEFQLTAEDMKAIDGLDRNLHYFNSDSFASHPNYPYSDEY
Protocol: as §1, §2

[6] = target: T6, HSD17B10 (Homo sapiens, UniProt Q99714); assay: Steroid substrate panel against HSD17B family member B10; conditions: substrate at 50 μM; estradiol set as 100%
T6 construct: made in house
T6 sequence (Q99714 1-261): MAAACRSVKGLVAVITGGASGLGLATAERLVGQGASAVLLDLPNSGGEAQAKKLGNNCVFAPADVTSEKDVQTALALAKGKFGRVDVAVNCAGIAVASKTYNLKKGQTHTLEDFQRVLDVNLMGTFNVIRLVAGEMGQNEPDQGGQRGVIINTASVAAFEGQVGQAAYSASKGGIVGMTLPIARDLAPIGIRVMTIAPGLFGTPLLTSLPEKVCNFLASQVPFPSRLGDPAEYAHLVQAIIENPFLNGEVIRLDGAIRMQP
Protocol: as §1, §2

[7] = target: T7, HSD17B11 (Homo sapiens, UniProt Q8NBQ5); assay: Steroid substrate panel against HSD17B family member B11; conditions: substrate at 50 μM; estradiol set as 100%
T7 construct: made in house
T7 sequence (Q8NBQ5 20-300): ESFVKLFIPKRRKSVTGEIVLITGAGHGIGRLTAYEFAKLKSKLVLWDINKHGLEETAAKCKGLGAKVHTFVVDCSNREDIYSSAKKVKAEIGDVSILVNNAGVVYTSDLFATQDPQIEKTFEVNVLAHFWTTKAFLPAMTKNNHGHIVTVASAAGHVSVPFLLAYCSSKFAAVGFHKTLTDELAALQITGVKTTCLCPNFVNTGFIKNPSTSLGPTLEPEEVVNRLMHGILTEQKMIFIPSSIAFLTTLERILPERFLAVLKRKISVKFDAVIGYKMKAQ
Protocol: as §1, §2

| Compound | HSD17B13 Enzymatic Activity Relative Light Units ([1]; Steroid Library, 50 μM steroid) [RLU] | HSD17B13 Enzymatic Activity Percent Estradiol Control ([1]; Steroid Library, 50 μM steroid) [%] | Percent of Control (POC), B1 [2] [%] | Percent of Control (POC), B2 [3] [%] | Percent of Control (POC), B4 [4] [%] | Percent of Control (POC), B5 [5] [%] | Percent of Control (POC), B10 [6] [%] | Percent of Control (POC), B11 [7] [%] | HSD17B13 Enzymatic Activity Percent Estradiol Control ([1]; Bioactive Lipid Library, 5 μM bioactive lipid) [%] | HSD17B13 Enzymatic Activity Percent Estradiol Control ([1]; Steroid Library, 50 μM steroid, listed as Beta-estradiol) [%] | HSD17B13 Enzymatic Activity Percent Estradiol Control ([1]; Steroid Library, 50 μM steroid, listed as Estradiol Control) [%] |
| --- | --- | --- | --- | --- | --- | --- | --- | --- | --- | --- | --- |
| C[C@]12CC[C@@H](O)C[C@@H]1CC[C@@H]1[C@@H]2CC[C@]2(C)C(=O)[C@H](O)C[C@@H]12 [16alpha-Hydroxyandrosterone] | 221840 | 1.07 | 0.0 | 1.5 | 0.5 | 45 | 69.7 | 0.0 |  |  |  |
| C[C@]12CC[C@@H](O)C[C@@H]1CC[C@@H]1[C@@H]2CC[C@]2(C)C(=O)CC[C@@H]12 [Androsterone] | 158120 | −0.04 | 0.0 | 1.0 | 0.3 | 0 | 91.0 | 0.0 |  |  |  |
| CC(=O)OCC(=O)[C@H]1CC[C@H]2[C@@H]3CCC4=CC(=O)CC[C@]4(C)[C@H]3[C@@H](O)C[C@]12C [Corticosterone 21-acetate] | 190160 | 0.52 | −0.1 | 0.0 | 0.1 | 0 | 0.3 | 32.2 |  |  |  |
| C[C@]12CCC(=O)C[C@@H]1CC[C@@H]1[C@@H]2CC[C@]2(C)[C@@H](O)CC[C@@H]12 [DHT, dihydroxy testosterone (DHT)] | 1886360 | 30.14 | 0.4 | 61.2 | 37.1 | 0 | 3.3 | 12.7 |  |  |  |
| C[C@]12CC[C@@H]3c4ccc(O)cc4CC[C@H]3[C@@H]1CC[C@@H]2O [Estradiol] |  | 85.76 | 100 | 100 | 100 | 100 | 100 | 100 | 100.00 | 72.17 | 100.00 |
| CC1(C)[C@@H](O[C@H]2O[C@H](C(=O)O)[C@@H](O)[C@H](O)[C@H]2O[C@@H]2O[C@H](C(=O)O)[C@@H](O)[C@H](O)[C@H]2O)CC[C@]2(C)[C@H]3C(=O)C=C4[C@@H]5C[C@@](C)(C(=O)O)CC[C@]5(C)CC[C@@]4(C)[C@]3(C)CC[C@@H]12 [Glycyrrhizic acid] | 163600 | 0.05 | −0.1 | 0.0 | 0.7 | 0 | 0.1 | 32.7 |  |  |  |
| C[C@H](O)[C@@]1(O)CC[C@H]2[C@@H]3CC[C@@H]4C[C@H](O)CC[C@]4(C)[C@H]3CC[C@@]21C [Pregnanetriol] | 163920 | 0.06 | −0.1 | 6.1 | 0.4 | 48 | 26.4 | 26.1 |  |  |  |
| C[C@]12CC[C@H]3[C@@H](CCC4=CC(=O)CC[C@@]43C)[C@@H]1CC[C@@H]2O [Testosterone] | 1125600 | 16.86 | 1.1 | 96.2 | 84.6 | 0 | 4.0 | 10.4 |  |  |  |
